Tested on: A549 cells
Experiment: pAKT S473 western blot / Wes, A549
Type: cell-based, human
Description: Unless otherwise indicated, western blotting was performed with ECL detection. For time course studies, A549 cells were seeded at 250,000 cells per well in 6-well plates in RPMI (10% FBS + 1 mM Na-Pyruvate + 1% P/S) and allowed to adhere overnight. The next day they were serum-starved for 4 h prior to treatment with 100 nM insulin or 5 μM 1938, for the indicated time (5 min to 48 h) at 37°C, 5% CO2. For 1938 titration assays in MEFs, cells were seeded at 150,000 cells per well in 6-well plates and allowed to adhere overnight. The next day they were serum-starved for 4 h prior to treatment with insulin (1 μM), 1938 (0.2 to 30 μM, final DMSO concentration of 1.5%) or inhibitors (final DMSO concentration of ≤1.5%) for 15 min at 37°C, 5% CO2. Cells were washed twice with cold PBS and lysed using cold RIPA buffer (25 mM Tris.HCl pH 7.6, 150 mM NaCl, 1% NP-40, 1% sodium deoxycholate, 0.1% SDS supplemented with protease/phosphatase inhibitor cocktail from Merck). To remove cell debris, homogenates were spun at 13,000 rpm for 15 min at 4°C and the supernatant fraction recovered. Protein concentration was determined by colorimetric assay (BCA assay, Promega). Protein extracts were resolved by SDS-PAGE, transferred to nitrocellulose membranes, and incubated overnight at 4°C with specific antibodies as follows: anti-vinculin (Sigma #V9131) and the following antibodies from Cell Signaling Technology (CST): pAKT-S473 (CST #9271), pS6-S240/244 (CST #2215), pPRAS40-T246 (CST #2640) and total S6 (CST #2317). Primary ntibodies were used at 1:1000 dilution except anti-vinculin (1:10000). Secondary antibodies are also from Cell Signalling Technology: Anti rabbit IgG, HRP linked Antibody (CST #7074S), Anti mouse IgG, HRP linked Antibody (CST #7076S). Raw and uncropped blots are shown in Supplementary Fig. 1.
A549 cells were seeded at 200,000 cells per well in 24-well plates in DMEM (10% FBS + 1% P/S) and allowed to adhere overnight. The next day, cells were washed once with PBS before addition of serum-free DMEM for 24 h. […]

CCN1CCN(c2ccc(Nc3cc(Nc4cccc5c4N(C(C)=O)CC5)ccn3)cc2)CC1 [Compound 1938]
time of peak pAKT^S473 activation (1938 5 μM, A549 and MCF10A): 30 min
time to induction of pAKT^S473 (1938 5 μM, A549 and MCF10A): 5 min
pAKT^S473 increase (A549): BYL719-sensitive increase in pAKT^S473

Source: publication PMC7614683, “A small molecule PI3Kα activator for cardioprotection and neuroregeneration” (Nature, 2023)
